# Results as given in patent US20080214582A1, “Purine Derivatives as Inhibitors of Receptor Tyrosine Kinase Activity” (priority 2005, published 2008).
# Key:
# [1] = target: T1, VEGFR (KDR) (Homo sapiens, UniProt P35968); test: VEGF receptor kinase assay (pEY substrate, 33P incorporation); assay type: biochemical; settings: kinase inhibition
# T1 construct: cloning the cytoplasmic domain of the KDR kinase as an in frame fusion at the carboxyl terminus of the GST gene; made in house; host or cells: Spodoptera frugiperda Sf21 insect cells, baculovirus vector pAcG2T
# T1 sequence (P35968 786-1356 limits assumed): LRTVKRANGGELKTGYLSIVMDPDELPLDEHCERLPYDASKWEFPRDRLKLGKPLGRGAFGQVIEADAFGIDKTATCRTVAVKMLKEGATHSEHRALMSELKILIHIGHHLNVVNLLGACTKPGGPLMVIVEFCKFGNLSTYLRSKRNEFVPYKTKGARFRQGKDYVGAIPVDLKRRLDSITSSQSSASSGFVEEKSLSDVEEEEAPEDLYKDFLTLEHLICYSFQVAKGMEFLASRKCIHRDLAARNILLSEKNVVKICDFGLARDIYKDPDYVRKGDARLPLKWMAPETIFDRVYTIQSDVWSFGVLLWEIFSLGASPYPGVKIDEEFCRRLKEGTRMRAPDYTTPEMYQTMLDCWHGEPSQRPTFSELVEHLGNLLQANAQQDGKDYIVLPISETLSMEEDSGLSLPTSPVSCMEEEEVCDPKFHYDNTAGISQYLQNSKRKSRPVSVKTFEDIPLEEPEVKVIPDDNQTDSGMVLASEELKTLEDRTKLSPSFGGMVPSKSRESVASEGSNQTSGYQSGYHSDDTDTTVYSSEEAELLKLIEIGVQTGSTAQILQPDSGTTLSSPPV
# Procedure: VEGF receptor kinase activity is measured by incorporation of radiolabelled phosphate into 4:1 polyglutamic acid/tyrosine substrate (pEY). The phosphorylated pEY product is trapped on a filter membrane and the incorporation of radiolabelled phosphate is quantified by scintillation counting.
# The intracellular tyrosine kinase domains of human KDR (Terman, B. I. et al. Oncogene (1991) Vol. 6, pp. 1677-1683.) and Flt-1 (Shibuya, M. et al. Oncogene (1990) Vol. 5, pp. 519-524) were cloned as glutathione S-transferase (GST) gene fusion proteins. This was accomplished by cloning the cytoplasmic domain of the KDR kinase as an in frame fusion at the carboxyl terminus of the GST gene. Soluble recombinant GST-kinase domain fusion proteins were expressed in Spodoptera frugiperda (Sf21) insect cells (Invitrogen) using a baculovirus expression vector (pAcG2T, Pharmingen).
# 1. Sf21 cells were infected with recombinant virus at a multiplicity of infection of 5 virus particles/cell and grown at 27° C. for 48 hours. 2. All steps were performed at 4° C. Infected cells were harvested by centrifugation at 1000×g and lysed at 4° C. for 30 minutes with 1/10 volume of lysis buffer followed by centrifugation at 100000×g for 1 hour. The supernatant was then passed over a glutathione Sepharose acid (Pharmacia) equilibrated with lysis buffer and washed with 5 volumes of the same buffer followed by 5 volumes of wash buffer. Recombinant GST-KDR protein was eluted with wash buffer/10 mM reduced glutathione (Sigma) and dialysed against dialysis buffer.
# 1. Add 5 μl of inhibitor or control to the assay in 50% DMSO. 2. Add 35 μl of reaction mixture containing 5 μl of 10× reaction buffer, 5 μl of 25 mM ATP/10 μCi[^33P]ATP (Amersham) and 5 μl of 10× substrate. 3. Start the reaction by the addition of 10 μl of KDR (25 nM) in enzyme dilution buffer. 4. Mix and incubate at room temperature for 15 minutes. 5. Stop the reaction by the addition of 50 μl of stop solution. 6. Incubate at 4° C. for 15 minutes. 7. Transfer a 90 μl aliquot to filter plate. 8. Aspirate and wash 3 times with wash solution. 9. Add 30 μl of scintillation cocktail, seal plate and count in a Wallace Microbeta scintillation counter.
# [2] = target: Tie-2 kinase (Homo sapiens, UniProt Q02763); test: Tie-2 kinase inhibition (flashplate, poly(Glu,Tyr), 33P-ATP); assay type: biochemical
# Sequence of Tie-2 kinase (Q02763 23-1124): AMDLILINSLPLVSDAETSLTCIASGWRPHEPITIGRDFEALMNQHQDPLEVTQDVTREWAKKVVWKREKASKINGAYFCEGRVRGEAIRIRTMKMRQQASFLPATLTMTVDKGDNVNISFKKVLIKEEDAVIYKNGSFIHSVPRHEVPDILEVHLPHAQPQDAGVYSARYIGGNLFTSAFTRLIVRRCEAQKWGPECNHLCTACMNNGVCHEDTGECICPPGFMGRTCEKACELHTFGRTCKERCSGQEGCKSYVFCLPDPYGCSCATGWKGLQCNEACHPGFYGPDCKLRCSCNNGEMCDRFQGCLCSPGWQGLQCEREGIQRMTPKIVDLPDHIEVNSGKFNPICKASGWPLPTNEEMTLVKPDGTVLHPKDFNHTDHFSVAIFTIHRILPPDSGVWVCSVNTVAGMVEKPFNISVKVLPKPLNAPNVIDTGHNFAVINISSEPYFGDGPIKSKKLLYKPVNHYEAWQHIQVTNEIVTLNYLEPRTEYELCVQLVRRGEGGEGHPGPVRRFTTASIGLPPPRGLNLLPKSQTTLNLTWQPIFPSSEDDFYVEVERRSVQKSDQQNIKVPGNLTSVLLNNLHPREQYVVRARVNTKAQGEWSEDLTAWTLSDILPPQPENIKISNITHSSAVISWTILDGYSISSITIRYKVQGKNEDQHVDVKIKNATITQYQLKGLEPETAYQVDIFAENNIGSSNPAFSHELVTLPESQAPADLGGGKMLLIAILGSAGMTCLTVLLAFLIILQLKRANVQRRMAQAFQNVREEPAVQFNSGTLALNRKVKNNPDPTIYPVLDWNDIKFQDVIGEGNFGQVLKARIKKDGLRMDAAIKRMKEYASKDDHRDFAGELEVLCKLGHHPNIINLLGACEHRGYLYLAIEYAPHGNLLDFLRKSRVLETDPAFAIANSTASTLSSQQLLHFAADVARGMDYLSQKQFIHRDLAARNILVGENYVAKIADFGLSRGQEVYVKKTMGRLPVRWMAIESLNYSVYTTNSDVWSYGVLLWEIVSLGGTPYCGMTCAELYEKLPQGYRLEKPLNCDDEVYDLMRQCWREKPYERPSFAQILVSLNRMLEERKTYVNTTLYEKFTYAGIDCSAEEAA
# Procedure: The TIE-2 tests can be carried out, for example, analogously to the methods indicated in WO 02/44156.
# The assay determines the inhibiting activity of the substances to be tested in the phosphorylation of the substrate poly(Glu, Tyr) by Tie-2 kinase in the presence of radioactive ^33P-ATP. The phosphorylated substrate binds to the surface of a “flashplate” microtitre plate during the incubation time. After removal of the reaction mixture, the microtitre plate is washed a number of times and the radioactivity on its surface is subsequently measured. An inhibiting effect of the substances to be measured results in lower radioactivity compared with an undisturbed enzymatic reaction.
IC50 [1],IC50 [2],Compound
2 nM,19.5 nM,"CC(C)(C)c1cc(NC(=O)Nc2ccc(-n3cnc4c(N)ncnc43)cc2)no1 [Compound 15, 1-[4-(6-aminopurin-9-yl)phenyl]-3-(5-tert-butylisoxazol-3-yl)urea]"
5.7 nM,49 nM,"Nc1ncnc2c1ncn2-c1ccc(NC(=O)Nc2cc(C(F)(F)F)ccc2F)cc1 [Compound 4, 1-[4-(6-aminopurin-9-yl)phenyl]-3-(2-fluoro-5-trifluoromethylphenyl)urea]"
4.4 nM,110 nM,"Nc1ncnc2c1ncn2-c1ccc(NC(=O)Nc2ccc(OC3CCNC3)c(C(F)(F)F)c2)cc1 (stereo not shown) [Compound 11, 1-[4-(6-aminopurin-9-yl)phenyl]-3-[4-(pyrrolidin-3-yloxy)-3-trifluoromethylphenyl]urea]"
4.6 nM,100 nM,"Nc1ncnc2c1ncn2-c1ccc(NC(=O)Nc2cc(C(F)(F)F)ccn2)cc1 [Compound 6, 1-[4-(6-aminopurin-9-yl)phenyl]-3-(4-trifluoromethylpyridin-2-yl)urea]"
88 nM,34.3 nM,"Nc1ncnc2c1ncn2-c1ccc(NC(=O)Nc2cc(C(F)(F)F)ccc2OC2CCNC2)cc1 (stereo not shown) [Compound 1, 1-[4-(6-aminopurin-9-yl)phenyl]-3-[2-(pyrrolidin-3-yloxy)-5-trifluoromethylphenyl]urea]"
5 nM,35 nM,"Nc1ncnc2c1ncn2-c1ccc(NC(=O)Nc2cccc(OC(F)(F)F)c2)cc1 [Compound 5, 1-[4-(6-aminopurin-9-yl)phenyl]-3-(3-trifluoromethoxyphenyl)urea]"
3.6 nM,14 nM,"Nc1ncnc2c1ncn2-c1ccc(NC(=O)Nc2cccc(C(F)(F)F)c2)cc1 [Compound 2, 1-[4-(6-aminopurin-9-yl)phenyl]-3-(3-trifluoromethylphenyl)urea]"

Compound,IC50 [1],IC50 [2]
"Nc1ncnc2c1ncn2-c1ccc(NC(=O)Nc2cc(C(F)(F)F)ccc2-n2cncn2)cc1 [Compound 9, 1-[4-(6-aminopurin-9-yl)phenyl]-3-(2-[1,2,4]triazol-1-yl-5-trifluoromethylphenyl)urea]",7.7 nM,12.5 nM
